Laboratory results from patent publication US10800791B2, “Triazole ACC inhibitors and uses thereof” (Gilead Apollo, LLC, priority 2015, dated 2020).
≈ marks a conversion by molar mass, not a printed value. Like-named read-outs stand apart in the source and are kept apart here.

Columns and labels:
[1] = molecular target: human (hACC2) (Homo sapiens, UniProt O00763); assay: In vitro ACC inhibition assay (ADP-Glo), hACC2; assay type: biochemical; settings: 5 nM ACC2, 20 μM ATP, 20 μM acetyl-CoA
Procedure: The detailed procedure is as follows. […] 10 μL ADP glo reagent was added. […] 20 μL kinase detection reagent was added.

[2] = test system: C. albicans; assay: Antifungal Activity Assay (broth microtiter MIC), C. albicans; assay type: cell-based, Candida albicans; settings: for MIC: Candida albicans, ATCC90028, 48 h
Procedure: (§1) Compounds of the present invention were evaluated in an Antifungal Activity Assay. An exemplary procedure for the assay, which measures the susceptibility of various Candida species to antifungal compounds, follows. Compounds to be tested (including fluconazole and amphotericin B) were dissolved in DMSO to obtain a solution having a concentration of 1 mg/mL. These stock solutions were sterile filtered using a 0.22 um nylon syringe filter, then diluted in sterile water to achieve a final concentration of 128 μg/mL.
(§2) All species were grown from frozen stock by directly plating on to freshly prepared Sabouraud Dextrose agar (BD, Difco) and incubated overnight in ambient air at 35° C. for 24 h. A direct suspension was prepared in RPMI 1640+MOPS (Lonza, Biowhittaker) by taking individual colonies from the overnight cultures using sterile swabs soaked in sterile saline. The concentration of the suspension was determined using pre-determined standard curves. These suspensions were then diluted down to 5×10^3 CFU/mL to achieve a final concentration of 2.5×10^3 CFU/mL once added to the microtiter plate as per CLSI guidelines (M27-A3, Vol. 28 No. 14).
(§3) Broth microtiter MIC challenge plates were prepared following CLSI guidelines (M27-A3, Vol. 28 No. 14). The original CLSI guidelines focused on reading Candida MICs after 48 h of incubation. As reading after only 24 h offers a clear advantage of patient care, QC limits are being established for all drugs at 24 h. That being said there are no known interpretive breakpoints for amphotericin B at 24 h and the current fluconazole interpretive breakpoints are based on a 48 h reading. The MICs for the test compounds were recorded at 48 h. All MIC determinations were achieved by visually comparing the growth found in the antibiotic challenged wells to that of the growth control.

[3] = test system: C. krusei; assay: Antifungal Activity Assay (broth microtiter MIC), C. krusei; assay type: cell-based, Candida krusei; settings: for MIC: Pichia kudriavzevii, ATCC6258, 48 h
Procedure: as §1, §2, §3

[4] = test system: C. parapsilosis; assay: Antifungal Activity Assay (broth microtiter MIC), C. parapsilosis; assay type: cell-based, Candida parapsilosis; settings: for MIC: Lodderomyces parapsilosis, ATCC22019, 48 h
Procedure: as §1, §2, §3

[5] = molecular target: fungal (fACC2) (UniProt Q00955); settings: read-out: fACC2 (in vitro ACC2 Inhibition Assay, IC50), ADP-Glo, 5 nM ACC2, 20 μM ATP, 20 μM acetyl-CoA
Procedure: An exemplary procedure for the in vitro ACC inhibition assay, which can be used to determine the inhibitory action of compounds of the invention toward either human (hACC2) or fungal (fACC2), follows. The ADP-Glo™ Kinase Assay kit from Promega was used. The ADP-Glo™ Kinase Assay is a luminescent ADP detection assay to measure enzymatic activity by quantifying the amount of ADP produced during an enzyme reaction. The assay is performed in two steps; first, after the enzyme reaction, an equal volume of ADP-Glo™ Reagent is added to terminate the reaction and deplete the remaining ATP. Second, the Kinase Detection Reagent is added to simultaneously convert ADP to ATP and allow the newly synthesized ATP to be measured using a luciferase/luciferin reaction. Luminescence can be correlated to ADP concentrations by using an ATP-to-ADP conversion curve. […] 50 μL of the compound being tested (600 μM in DMSO) was added to a 384-well dilution plate. The compound was diluted 1:3 in succession in DMSO for each row for 11 wells. 0.5 μL ACC2 working solution was added to 384-well white Optiplate assay plate. 0.5 μL diluted compound solution in each column from step 2 was added to assay plate, each row containing 2 replicates. […] The plates were incubated at room temperature for 15 minutes. 5 μL substrate working solution was added to each well to initiate reaction. Final ACC2 reaction concentrations consist of: 5 nM ACC2, 20 μM ATP, 20 μM acetyl-CoA, 12 mM NaHCO3, 0.01% Brij35, 2 mM DTT, 5% DMSO, test compound concentrations: 30 μM, 10 μM, 3.33 μM, 1.11 μM, 0.37 μM, 0.123 μM, 0.0411 μM, 0.0137 μM, 0.00457 μM, 0.00152 μM, and 0.00051 μM. Plates were incubated at room temperature for 60 minutes. 10 μL ADP glo reagent was added. Plates were incubated at room temperature for 40 minutes. 20 μL kinase detection reagent was added. Plates were incubated at room temperature for 40 minutes, and then read on a Perkin Elmer EnVision 2104 plate reader for luminescence as Relative Light Units (RLU).
Data for each concentration, as well as the positive and negative controls were averaged, and the standard deviation calculated. Percent inhibition was calculated by the formula: 100×(average negative control−compound)/(average negative control−average positive control). The IC50 for each compound was calculated by fitting the data with a non-linear regression equation: Y=Bottom+(Top−Bottom)/(1+10 ((Log IC50−X)*HillSlope)), where X is the log of compound concentration and Y is percent inhibition.

[6] = Table 3a, ATCC 90028, 3 replicates, MIC recorded at 48 h, read-out: MIC, C. albicans ATCC 90028
[7] = Table 3b (additional results), ATCC 90028, 3 replicates, MIC recorded at 48 h, read-out: MIC, C. albicans ATCC 90028
[8] = Table 3a, ATCC 6258, 3 replicates, MIC recorded at 48 h, read-out: MIC, C. krusei ATCC 6258
[9] = Table 3b (additional results), ATCC 6258, 3 replicates, MIC recorded at 48 h, read-out: MIC, C. krusei ATCC 6258
[10] = Table 3a, ATCC 22019, 3 replicates, MIC recorded at 48 h, read-out: MIC, C. parapsilosis ATCC 22019
[11] = Table 3b (additional results), ATCC 22019, 3 replicates, MIC recorded at 48 h, read-out: MIC, C. parapsilosis ATCC 22019
[12] = Table 3a, 3 replicates, MIC recorded at 48 h
[13] = read-out: MIC, C. albicans ATCC 90028, Table 3b (additional results), 3 replicates, MIC recorded at 48 h
[14] = read-out: MIC, C. krusei ATCC 6258, Table 3b (additional results), 3 replicates, MIC recorded at 48 h
[15] = read-out: MIC, C. parapsilosis ATCC 22019, Table 3b (additional results), 3 replicates, MIC recorded at 48 h

Chain of human (hACC2) (O00763 whole entry): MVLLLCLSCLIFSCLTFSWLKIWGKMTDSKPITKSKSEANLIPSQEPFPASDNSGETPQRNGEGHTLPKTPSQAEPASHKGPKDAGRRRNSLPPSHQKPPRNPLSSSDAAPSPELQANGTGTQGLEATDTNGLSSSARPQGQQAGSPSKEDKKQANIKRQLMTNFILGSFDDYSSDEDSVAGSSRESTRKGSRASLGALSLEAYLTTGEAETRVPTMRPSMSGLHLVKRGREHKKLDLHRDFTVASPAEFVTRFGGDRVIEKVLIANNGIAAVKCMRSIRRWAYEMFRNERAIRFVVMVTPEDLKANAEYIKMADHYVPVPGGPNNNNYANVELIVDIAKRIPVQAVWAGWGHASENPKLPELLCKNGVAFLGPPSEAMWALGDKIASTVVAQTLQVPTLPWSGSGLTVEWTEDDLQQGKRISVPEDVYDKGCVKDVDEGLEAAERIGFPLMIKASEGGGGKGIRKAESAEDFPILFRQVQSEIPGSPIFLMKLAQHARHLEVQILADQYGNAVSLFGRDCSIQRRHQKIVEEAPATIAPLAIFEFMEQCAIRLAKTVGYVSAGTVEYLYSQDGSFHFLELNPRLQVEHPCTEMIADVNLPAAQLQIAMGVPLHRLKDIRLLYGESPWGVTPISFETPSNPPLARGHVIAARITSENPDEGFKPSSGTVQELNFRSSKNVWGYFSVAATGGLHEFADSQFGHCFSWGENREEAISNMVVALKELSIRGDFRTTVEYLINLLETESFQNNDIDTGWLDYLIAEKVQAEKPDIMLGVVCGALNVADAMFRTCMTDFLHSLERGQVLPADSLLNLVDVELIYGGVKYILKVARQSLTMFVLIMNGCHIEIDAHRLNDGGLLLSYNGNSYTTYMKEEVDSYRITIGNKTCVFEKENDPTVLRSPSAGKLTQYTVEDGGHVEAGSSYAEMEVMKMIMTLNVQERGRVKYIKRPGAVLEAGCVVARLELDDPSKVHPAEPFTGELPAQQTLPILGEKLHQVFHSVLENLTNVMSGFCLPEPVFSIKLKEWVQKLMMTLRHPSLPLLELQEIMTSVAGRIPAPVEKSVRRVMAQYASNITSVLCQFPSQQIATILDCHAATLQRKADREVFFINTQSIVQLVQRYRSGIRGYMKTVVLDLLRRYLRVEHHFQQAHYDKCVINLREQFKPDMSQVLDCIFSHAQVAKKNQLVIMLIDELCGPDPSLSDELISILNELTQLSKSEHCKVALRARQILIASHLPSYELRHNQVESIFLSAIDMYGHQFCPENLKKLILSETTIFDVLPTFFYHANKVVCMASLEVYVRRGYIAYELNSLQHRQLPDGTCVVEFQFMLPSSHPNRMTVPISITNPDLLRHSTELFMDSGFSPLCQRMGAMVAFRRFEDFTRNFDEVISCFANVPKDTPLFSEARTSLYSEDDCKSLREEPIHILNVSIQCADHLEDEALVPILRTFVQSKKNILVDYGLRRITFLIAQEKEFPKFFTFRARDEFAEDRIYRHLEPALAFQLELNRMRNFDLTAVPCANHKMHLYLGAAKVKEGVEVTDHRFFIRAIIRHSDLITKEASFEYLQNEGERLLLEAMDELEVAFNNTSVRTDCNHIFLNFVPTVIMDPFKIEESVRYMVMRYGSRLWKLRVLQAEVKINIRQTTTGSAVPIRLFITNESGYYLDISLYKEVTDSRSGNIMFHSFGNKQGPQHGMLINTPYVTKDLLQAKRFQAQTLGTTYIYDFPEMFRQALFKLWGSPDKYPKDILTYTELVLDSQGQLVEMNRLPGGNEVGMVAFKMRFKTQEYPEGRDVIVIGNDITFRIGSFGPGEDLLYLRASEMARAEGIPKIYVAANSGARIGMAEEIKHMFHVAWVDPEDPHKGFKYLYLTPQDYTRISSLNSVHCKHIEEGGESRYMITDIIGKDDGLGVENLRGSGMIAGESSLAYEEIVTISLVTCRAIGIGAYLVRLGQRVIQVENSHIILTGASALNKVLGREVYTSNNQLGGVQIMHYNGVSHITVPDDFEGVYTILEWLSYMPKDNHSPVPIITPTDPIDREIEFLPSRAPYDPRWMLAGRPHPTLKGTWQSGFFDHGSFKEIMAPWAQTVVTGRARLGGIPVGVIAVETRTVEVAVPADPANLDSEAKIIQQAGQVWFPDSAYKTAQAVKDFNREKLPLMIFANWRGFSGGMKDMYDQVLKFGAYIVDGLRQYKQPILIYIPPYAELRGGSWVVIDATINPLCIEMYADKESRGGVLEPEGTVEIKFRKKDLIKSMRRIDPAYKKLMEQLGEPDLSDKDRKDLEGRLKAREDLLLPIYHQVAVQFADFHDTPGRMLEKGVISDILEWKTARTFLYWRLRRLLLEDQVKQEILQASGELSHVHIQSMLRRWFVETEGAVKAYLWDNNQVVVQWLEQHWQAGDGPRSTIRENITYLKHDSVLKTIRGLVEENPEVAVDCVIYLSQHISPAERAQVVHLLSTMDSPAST
Chain of fungal (fACC2) (Q00955 whole entry): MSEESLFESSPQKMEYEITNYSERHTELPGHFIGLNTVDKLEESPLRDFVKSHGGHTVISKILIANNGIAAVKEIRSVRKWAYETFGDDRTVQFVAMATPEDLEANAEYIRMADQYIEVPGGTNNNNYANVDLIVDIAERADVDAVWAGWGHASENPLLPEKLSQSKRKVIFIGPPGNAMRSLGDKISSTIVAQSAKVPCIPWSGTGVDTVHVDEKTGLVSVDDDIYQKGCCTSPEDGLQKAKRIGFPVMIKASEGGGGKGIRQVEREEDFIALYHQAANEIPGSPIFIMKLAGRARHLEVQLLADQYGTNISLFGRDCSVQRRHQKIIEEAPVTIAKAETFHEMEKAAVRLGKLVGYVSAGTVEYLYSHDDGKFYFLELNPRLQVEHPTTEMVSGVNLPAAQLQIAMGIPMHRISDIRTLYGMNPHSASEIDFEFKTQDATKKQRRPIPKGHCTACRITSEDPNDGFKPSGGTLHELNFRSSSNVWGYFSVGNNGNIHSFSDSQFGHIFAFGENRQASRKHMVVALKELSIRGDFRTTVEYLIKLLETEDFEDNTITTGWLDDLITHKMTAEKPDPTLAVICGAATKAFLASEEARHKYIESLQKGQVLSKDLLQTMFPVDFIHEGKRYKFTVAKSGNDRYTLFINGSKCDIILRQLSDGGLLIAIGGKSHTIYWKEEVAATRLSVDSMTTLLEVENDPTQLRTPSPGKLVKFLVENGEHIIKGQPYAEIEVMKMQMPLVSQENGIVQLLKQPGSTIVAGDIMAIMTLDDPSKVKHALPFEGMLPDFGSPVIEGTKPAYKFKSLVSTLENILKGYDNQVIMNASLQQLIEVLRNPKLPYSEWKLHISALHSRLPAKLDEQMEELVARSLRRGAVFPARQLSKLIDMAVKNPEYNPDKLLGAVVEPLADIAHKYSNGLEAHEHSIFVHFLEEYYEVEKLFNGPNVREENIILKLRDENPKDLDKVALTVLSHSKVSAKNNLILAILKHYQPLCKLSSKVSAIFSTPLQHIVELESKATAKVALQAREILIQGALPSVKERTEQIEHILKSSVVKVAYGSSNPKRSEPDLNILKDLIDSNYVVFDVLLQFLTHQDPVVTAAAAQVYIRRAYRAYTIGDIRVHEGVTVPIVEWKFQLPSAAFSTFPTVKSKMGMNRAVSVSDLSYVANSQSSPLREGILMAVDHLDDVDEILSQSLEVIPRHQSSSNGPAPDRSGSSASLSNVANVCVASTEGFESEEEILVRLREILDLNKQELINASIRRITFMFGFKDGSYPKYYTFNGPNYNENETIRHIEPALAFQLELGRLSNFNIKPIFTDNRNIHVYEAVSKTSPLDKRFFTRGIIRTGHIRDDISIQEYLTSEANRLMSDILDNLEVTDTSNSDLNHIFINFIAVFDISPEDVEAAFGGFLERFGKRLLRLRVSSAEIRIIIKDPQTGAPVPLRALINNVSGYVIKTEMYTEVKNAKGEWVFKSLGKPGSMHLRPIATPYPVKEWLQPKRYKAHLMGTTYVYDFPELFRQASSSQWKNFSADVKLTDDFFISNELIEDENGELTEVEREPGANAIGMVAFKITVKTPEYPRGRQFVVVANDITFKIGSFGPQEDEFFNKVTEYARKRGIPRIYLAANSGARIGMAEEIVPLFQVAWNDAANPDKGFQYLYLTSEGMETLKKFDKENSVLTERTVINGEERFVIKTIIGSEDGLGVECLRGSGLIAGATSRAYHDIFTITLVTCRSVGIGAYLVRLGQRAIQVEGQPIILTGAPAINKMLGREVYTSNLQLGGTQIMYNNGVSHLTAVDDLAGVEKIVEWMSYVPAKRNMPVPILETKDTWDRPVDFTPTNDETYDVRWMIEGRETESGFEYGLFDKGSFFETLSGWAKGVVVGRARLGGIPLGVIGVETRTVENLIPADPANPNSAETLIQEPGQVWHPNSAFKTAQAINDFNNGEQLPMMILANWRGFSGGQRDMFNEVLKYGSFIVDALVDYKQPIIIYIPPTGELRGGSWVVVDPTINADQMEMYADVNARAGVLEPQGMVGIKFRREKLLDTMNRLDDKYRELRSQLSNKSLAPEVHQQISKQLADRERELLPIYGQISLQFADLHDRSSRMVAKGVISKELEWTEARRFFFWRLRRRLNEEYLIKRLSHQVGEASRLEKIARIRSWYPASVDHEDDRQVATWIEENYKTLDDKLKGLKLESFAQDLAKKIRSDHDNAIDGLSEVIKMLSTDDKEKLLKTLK

SMILES | IC50 ([1]; Table 2a) [nM] | IC50 ([1]; Table 2b, additional results) [nM] | MIC [2, 6] [µg/mL] | MIC [2, 7] [µg/mL] | MIC [3, 8] [µg/mL] | MIC [3, 9] [µg/mL] | MIC [4, 10] [µg/mL] | MIC [4, 11] [µg/mL] | IC50 ([5]; Table 2a) [nM] | IC50 ([5]; Table 2b, additional results) [nM] | MIC, C. albicans ATCC 90028 [2, 12] | MIC, C. krusei ATCC 6258 [3, 12] | MIC, C. krusei ATCC 6258 ([3]; Table 3b (additional results), 3 replicates, MIC recorded at 48 h) | MIC, C. parapsilosis ATCC 22019 [4, 12] | MIC [2, 13] [µg/mL] | MIC [3, 14] [µg/mL] | MIC [4, 15] [µg/mL]
COc1ccc(F)cc1[C@H](Cn1c(=O)n(C(C)(C)C(=O)N2CCCC2)c(=O)c2c(C)c(-n3nccn3)sc21)OCC(C)=O [Compound I-98] | 5 to 10 | 5 to 10 | 2.1 to 4 (≈ 3.43 to 6.53 µM) | 1.01 to 2 (≈ 1.65 to 3.26 µM) | 0.25 to 1 (≈ 0.408 to 1.63 µM) | 2.01 to 4 (≈ 3.28 to 6.53 µM) | 2.1 to 4 (≈ 3.43 to 6.53 µM) | 1.01 to 2 (≈ 1.65 to 3.26 µM) | 1 to 5 | 1 to 5 |  |  |  |  |  |  | 
COc1ccc(F)cc1[C@H](Cn1c(=O)n(C(C)(C)C(=O)NC2CCCCC2)c(=O)c2c(C)c(-n3nccn3)sc21)OCC(C)=O [Compound I-99] | 1 to 5 | 1 to 5 | 0.25 to 1 (≈ 0.39 to 1.56 µM) | 1.01 to 2 (≈ 1.58 to 3.12 µM) | 0.06 to 0.24 (≈ 0.0936 to 0.375 µM) | 0.25 to 1 (≈ 0.39 to 1.56 µM) | 0.25 to 1 (≈ 0.39 to 1.56 µM) | 0.25 to 1 (≈ 0.39 to 1.56 µM) | 1 to 5 | 1 to 5 |  |  |  |  |  |  | 
COCCO[C@@H](Cn1c(=O)n(C(C)(C)C(=O)NC2CCC2)c(=O)c2c(C)c(-n3nccn3)sc21)c1cc(F)ccc1OC [Compound I-100] | 1 to 5 | 1 to 5 |  | 2.01 to 4 (≈ 3.27 to 6.51 µM) |  |  |  | 0.25 to 1 (≈ 0.407 to 1.63 µM) | 1 to 5 | 1 to 5 | A (MIC of 0.25-1.0 μg/mL) | AA (MIC of 0.06-0.24 μg/mL) | A (MIC of 0.25-1.0 μg/mL) | A (MIC of 0.25-1.0 μg/mL) |  |  | 
COc1ccccc1[C@H](Cn1c(=O)n(C(C)(C)C(=O)N2CC=CC2)c(=O)c2c(C)c(-n3nccn3)sc21)OC1CCOCC1 [Compound I-101] | 5 to 10 | 5 to 10 | 0.25 to 1 (≈ 0.403 to 1.61 µM) | 1.01 to 2 (≈ 1.63 to 3.22 µM) | 0.25 to 1 (≈ 0.403 to 1.61 µM) | 1.01 to 2 (≈ 1.63 to 3.22 µM) | 0.25 to 1 (≈ 0.403 to 1.61 µM) | 1.01 to 2 (≈ 1.63 to 3.22 µM) | 1 to 5 | 1 to 5 |  |  |  |  |  |  | 
COc1ccc(F)cc1[C@H](Cn1c(=O)n(C(C)C(=O)NC(C)C)c(=O)c2c(C)c(-n3nccn3)sc21)OCC(C)(C)O (some centres unmarked) [Compound I-132] |  |  | 0.25 to 1 (≈ 0.415 to 1.66 µM) | 1.01 to 2 (≈ 1.68 to 3.32 µM) | 0.25 to 1 (≈ 0.415 to 1.66 µM) | 2.01 to 4 (≈ 3.34 to 6.64 µM) | 0.25 to 1 (≈ 0.415 to 1.66 µM) | 1.01 to 2 (≈ 1.68 to 3.32 µM) |  |  |  |  |  |  |  |  | 
COc1ccc(F)cc1[C@H](Cn1c(=O)n(C(C)(C)C(=O)NC(C)C)c(=O)c2c(C)c(-n3nccn3)sc21)OC(C)(C)C(C)=O [Compound I-178] | 10 to 40 | 10 to 40 |  |  |  |  |  |  |  |  |  |  |  |  | 0.25 to 1 (≈ 0.398 to 1.59 µM) | 0.25 to 1 (≈ 0.398 to 1.59 µM) | 0.25 to 1 (≈ 0.398 to 1.59 µM)
COc1ccccc1[C@@H](O)Cn1c(=O)n(C(C)(C)C(=O)OCc2ccccc2)c(=O)c2c(C)c(-n3nccn3)sc21 [Compound I-179] | > 40 | > 40 |  | > 4.01 |  | > 4.01 |  | 2.01 to 4 (≈ 3.49 to 6.95 µM) |  |  |  |  |  |  |  |  | 
COc1ccc(F)cc1[C@H](Cn1c(=O)n(C(C)(C)C(=O)N2CC=CC2)c(=O)c2c(C)c(-n3nccn3)sc21)OCC(C)=O [Compound I-190] |  | 5 to 10 |  | > 4.01 |  | > 4.01 |  | 2.01 to 4 (≈ 3.29 to 6.55 µM) |  |  |  |  |  |  |  |  | 
Cc1c(-n2nccn2)sc2c1c(=O)n(C(C)(C)C(=O)NC(C)C)c(=O)n2C[C@H](O)c1cc(F)ccc1OCC#N [Compound I-199] |  | 5 to 10 |  |  |  |  |  |  |  |  |  |  |  |  | 2.01 to 4 (≈ 3.53 to 7.02 µM) | 2.01 to 4 (≈ 3.53 to 7.02 µM) | 1.01 to 2 (≈ 1.77 to 3.51 µM)
Cc1c(-n2nccn2)sc2c1c(=O)n(C(C)(C)C(=O)NC(C)C)c(=O)n2C[C@H](OCC(C)(C)O)c1cc(F)ccc1O [Compound I-236] |  | 10 to 40 |  | 1.01 to 2 (≈ 1.68 to 3.32 µM) |  | 2.01 to 4 (≈ 3.34 to 6.64 µM) |  | 2.01 to 4 (≈ 3.34 to 6.64 µM) |  |  |  |  |  |  |  |  | 
